Assays:
[1] = test system: tolerance induced by morphine; assay: Antagonism to development of tolerance to repeated morphine HCl, Tail Flick Test (Experiment 5); conditions: for percentage variation in latency time (Effect %): morphine 5 mg/kg i.p. alone
Description: Experiment No. 5: Antagonism of several products of the invention to the development of tolerance induced in rats by the repeated administration of morphine HCl.
Several of the compounds of the invention were examined to determine their possible capacity to antagonise the development of tolerance induced by morphine. Groups of 6 male rats having a weight of about 200-250 grams were used.
At intervals of 24 hours from the first treatment (time 0) each animal (except the control group treated physiologically) received 5 mg/kg of morphine hydrochloride i.p. together with 10 mg/kg i.p. of the compounds indicated (with the exception of the group treated solely with morphine).
The determination of the pain threshold was effected 15', 30', 45' and 60' from the treatment by the Tail Flick Test.

[2] = test system: morphine analgesia; assay: Increase in analgesia of morphine, Tail Flick Test (Experiment 1); format: in vivo, rats; conditions: for M (10-90) ± SE, mean percentage variation of latency: mean 10-90 min; for Power ratio with respect to morphine alone: rat, in vivo
Summary of the method: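 Non-fasted male rats (150-200 g); a tail point is exposed to a 75 °C heat source and latency to tail movement recorded, 8 s cut-off. Readings taken before and 10, 20, 30, 45, 60 and 90 min after analgesic treatment; percentage variation calculated per animal.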

[3] = test system: enkephalinamide (DALA) analgesia; assay: Potentiation of DALA (enkephalinamide) analgesia, i.c.v., Tail Flick Test (Experiment 4); format: in vivo, rats; parameters: scale not given here
Description: Experiment No. 4: Potentiation of the analgesic activities of enkephalins induced by some of the compounds of the invention. […]

[4] = test system: endogenous opiates analgesia; assay: Analgesic activity of endogenous opiates released by transcutaneous shock, Tail Flick Test (Experiment 3); format: in vivo, rats
Description: Experiment No. 3: Influence of several of the compounds of the invention on the analgesic activities of endogenous opiates released by transcutaneous shock in rats and measured by the Tail Flick Test
The method is that described by Lewis et al. J. Neurosc. 1, 358 […]. Male rats which have not fasted and have a weight of about 200 g are used.
The animals are stressed by the application of a 60 Hz-2.5 mA current to the front leg in pulses of a duration of 1 second every 5 seconds for 20 minutes.
This stress regime induces the release of endogenous opiates.

[5] = test system: CCK-8 induced contraction of guinea pig gall bladder; assay: Anti-CCK activity on gall bladder strips in vitro; conditions: CCK-8 10 ng/ml
Summary of the method: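 Longitudinal guinea pig gall bladder strips in Krebs at 32 °C, gassed with O2/CO2 95:5, were contracted with 10 ng/ml CCK-8. Isometric force was recorded across several compound concentrations, and ED50 was taken as the μg/ml concentration antagonising 50% of the CCK contraction.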

[6] = compound 1 mg/kg iv + stress, 5'
[7] = compound 1 mg/kg iv + stress, 10'
[8] = compound 1 mg/kg iv + stress, 15'
[9] = compound 3 mg/kg iv + stress, 5'
[10] = compound 3 mg/kg iv + stress, 10'
[11] = compound 3 mg/kg iv + stress, 15'
[12] = 10', compound 10 mg/kg i.p. + morphine 2 mg/kg
[13] = 20', compound 10 mg/kg i.p. + morphine 2 mg/kg
[14] = 30', compound 10 mg/kg i.p. + morphine 2 mg/kg
[15] = 45', compound 10 mg/kg i.p. + morphine 2 mg/kg
[16] = 60', compound 10 mg/kg i.p. + morphine 2 mg/kg
[17] = 90', compound 10 mg/kg i.p. + morphine 2 mg/kg
[18] = compound 10 mg/kg i.p. + morphine 2 mg/kg

CN1CC[C@]23c4c5ccc(O)c4O[C@H]2[C@@H](O)C=C[C@H]3[C@H]1C5 [Morphine, reference compound]
day at which activity reaches level of inactivity (0) ([1]; from the straight lines of regression): fell to 0 on the sixth day of treatment
percentage variation in latency time (Effect %) ([1]; 24 h): 42.09%
percentage variation in latency time (Effect %) ([1]; 48 h): 26.54%
percentage variation in latency time (Effect %) ([1]; 72 h): 19.96%
percentage variation in latency time (Effect %) ([1]; 96 h): 10.79%
percentage variation in latency time (Effect %) ([1]; 120 h): 4.45%
percentage variation in latency time (Effect %) ([1]; 168 h): 2.12%
percentage variation in latency time (Effect %) ([1]; time 0): 58.03%
activity versus controls / morphine group during treatment ([1]; up to 168 hours): not significantly different from the control group
percentage variation of latency of pain sensation ([2]; 10', morphine 2 mg/kg alone): 10.8 ± 4.0%
percentage variation of latency of pain sensation ([2]; 10', morphine 2 mg/kg alone, listed as Morphene): 10.8%
percentage variation of latency of pain sensation ([2]; 20', morphine 2 mg/kg alone): 54.2 ± 17.0%
percentage variation of latency of pain sensation ([2]; 20', morphine 2 mg/kg alone, listed as Morphene): 54.2 ±17%
percentage variation of latency of pain sensation ([2]; 30', morphine 2 mg/kg alone): 46.6 ± 21.0%
percentage variation of latency of pain sensation ([2]; 30', morphine 2 mg/kg alone, listed as Morphene): 46.6 ± 21%
percentage variation of latency of pain sensation ([2]; 45', morphine 2 mg/kg alone): 41.7 ± 16.0%
percentage variation of latency of pain sensation ([2]; 45', morphine 2 mg/kg alone, listed as Morphene): 41.7%
percentage variation of latency of pain sensation ([2]; 60', morphine 2 mg/kg alone): 32.0%
percentage variation of latency of pain sensation ([2]; 60', morphine 2 mg/kg alone, listed as Morphene): 32 ± 17%
percentage variation of latency of pain sensation ([2]; 90', morphine 2 mg/kg alone): -6.4 ± 10.0%
percentage variation of latency of pain sensation ([2]; 90', morphine 2 mg/kg alone, listed as Morphene): -6.4 ± 10%
M (10-90) ± SE, mean percentage variation of latency ([2]; morphine 2 mg/kg alone): 29.8 ± 23.0%
M (10-90) ± SE, mean percentage variation of latency ([2]; morphine 2 mg/kg alone, listed as Morphene): 29.8%

CSCC[C@H](NC(=O)[C@H](Cc1ccccc1)NC(=O)CNC(=O)[C@@H](C)NC(=O)[C@@H](N)Cc1ccc(O)cc1)C(N)=O [DALA, D-ala-methionine-enkephalinamide, reference compound]
analgesic activity, Tail Flick ([3]; DALA 10 μg/kg ICV alone, 10'): 21.9
analgesic activity, Tail Flick ([3]; DALA 10 μg/kg ICV alone, 20'): 25.9
analgesic activity, Tail Flick ([3]; DALA 10 μg/kg ICV alone, 30'): 26.2
analgesic activity, Tail Flick ([3]; DALA 10 μg/kg ICV alone, 45'): 26.0
analgesic activity, Tail Flick ([3]; DALA 10 μg/kg ICV alone, 60'): 7.3
analgesic activity, Tail Flick ([3]; DALA 10 μg/kg ICV alone, 90'): 5.0
MEAN analgesic activity, Tail Flick ([3]; DALA 10 μg/kg ICV alone): 18.7
analgesic activity, Tail Flick ([3]; DALA 10 mg/kg (ICV) as printed, alone, 10'): 4.1
analgesic activity, Tail Flick ([3]; DALA 10 mg/kg (ICV) as printed, alone, 20'): 6.24
analgesic activity, Tail Flick ([3]; DALA 10 mg/kg (ICV) as printed, alone, 30'): 9.19
analgesic activity, Tail Flick ([3]; DALA 10 mg/kg (ICV) as printed, alone, 45'): 8.29
analgesic activity, Tail Flick ([3]; DALA 10 mg/kg (ICV) as printed, alone, 60'): 6.20
analgesic activity, Tail Flick ([3]; DALA 10 mg/kg (ICV) as printed, alone, 90'): 10.56
MEAN analgesic activity, Tail Flick ([3]; DALA 10 mg/kg (ICV) as printed, alone): 7.51

CCCN(CCC)C(=O)C(CCC(=O)O)NC(=O)c1ccc(C(F)(F)F)cc1 (stereo not drawn) [Compound C-39]
average latency, Tail Flick [4, 6]: 6.3 ± 0.4 s
average latency, Tail Flick [4, 7]: 5.8 ± 0.38 s
average latency, Tail Flick [4, 8]: 4.04 ± 0.36 s
average latency, Tail Flick [4, 9]: 7.54 ± 0.65 s
average latency, Tail Flick [4, 10]: 5.98 ± 0.41 s
average latency, Tail Flick [4, 11]: 5.08 ± 0.6 s
percentage variation of latency of pain sensation [2, 12]: 44.9 ± 15%
percentage variation of latency of pain sensation [2, 13]: 100.0 ± 0%
percentage variation of latency of pain sensation [2, 14]: 93.3 ± 7%
percentage variation of latency of pain sensation [2, 15]: 94.4 ± 6%
percentage variation of latency of pain sensation [2, 16]: 85.6 ± 7%
percentage variation of latency of pain sensation [2, 17]: 81.8 ± 10%
M (10-90) ± SE, mean percentage variation of latency [2, 18]: 83.3 ± 20%
Power ratio with respect to morphine alone [2]: 2.79

CC(C)c1ccc(C(=O)NC(CCC(=O)N2CCCCC2)C(=O)O)cc1 (racemic) [Compound D-17]
ED50 (concentration antagonising 50% of contracting effect of CCK-8) [5]: > 300 µg/mL
average latency, Tail Flick [4, 6]: 6.18 ± 0.65 s
average latency, Tail Flick [4, 7]: 7.02 ± 0.76 s
average latency, Tail Flick [4, 8]: 5.31 ± 0.55 s
average latency, Tail Flick [4, 9]: 9.08 ± 0.55 s
average latency, Tail Flick [4, 10]: 9.08 ± 0.80 s
average latency, Tail Flick [4, 11]: 6.08 ± 0.98 s
percentage variation of latency of pain sensation [2, 12]: 62.3 ± 15%
percentage variation of latency of pain sensation [2, 13]: 92.9 ± 7%
percentage variation of latency of pain sensation [2, 14]: 100 ± 0%
percentage variation of latency of pain sensation [2, 15]: 100 ± 0%
percentage variation of latency of pain sensation [2, 16]: 100 ± 0%
percentage variation of latency of pain sensation [2, 17]: 100 ± 0%
M (10-90) ± SE, mean percentage variation of latency [2, 18]: 92.5 ± 15%
Power ratio with respect to morphine alone [2]: 3.10

O=C(O)CCC(NC(=O)c1ccc(Cl)c(Cl)c1)C(=O)N1CCCCC1 (stereo not drawn) [Compound C-26]
ED50 (concentration antagonising 50% of contracting effect of CCK-8) [5]: 146.5 µg/mL
percentage variation of latency of pain sensation [2, 12]: 50.1 ± 17.0%
percentage variation of latency of pain sensation [2, 13]: 80.3 ± 20.0%
percentage variation of latency of pain sensation [2, 14]: 84.7 ± 11.0%
percentage variation of latency of pain sensation [2, 15]: 71.8 ± 15.0%
percentage variation of latency of pain sensation [2, 16]: 32.2%
percentage variation of latency of pain sensation [2, 17]: 4.9 ± 6.0%
M (10-90) ± SE, mean percentage variation of latency [2, 18]: 54.0 ± 31.1%
Power ratio with respect to morphine alone [2]: 1.81

CCCN(CCC)C(=O)C(CC(=O)O)NC(=O)c1ccccc1Br (stereo not drawn) [Compound C-16]
ED50 (concentration antagonising 50% of contracting effect of CCK-8) [5]: > 200 µg/mL
percentage variation of latency of pain sensation [2, 12]: 43.2 ± 11.0%
percentage variation of latency of pain sensation [2, 13]: 88.7 ± 10.0%
percentage variation of latency of pain sensation [2, 14]: 54.8 ± 5.8%
percentage variation of latency of pain sensation [2, 15]: 47.3%
percentage variation of latency of pain sensation [2, 16]: 26.1 ± 11.5%
percentage variation of latency of pain sensation [2, 17]: 22.2 ± 16.7%
M (10-90) ± SE, mean percentage variation of latency [2, 18]: 47.0 ± 24.0%
Power ratio with respect to morphine alone [2]: 1.58

CCCN(CCC)C(=O)C(CCC(=O)O)NC(=O)c1cc(F)cc(F)c1 (stereo not drawn) [Compound C-13]
ED50 (concentration antagonising 50% of contracting effect of CCK-8) [5]: > 200 µg/mL
percentage variation of latency of pain sensation [2, 12]: 24.6 ± 8.9%
percentage variation of latency of pain sensation [2, 13]: 70.0 ± 18.5%
percentage variation of latency of pain sensation [2, 14]: 75.5 ± 15.0%
percentage variation of latency of pain sensation [2, 15]: 56.6%
percentage variation of latency of pain sensation [2, 16]: 62.3 ± 17.3%
percentage variation of latency of pain sensation [2, 17]: 59.2 ± 25.1%
M (10-90) ± SE, mean percentage variation of latency [2, 18]: 58.0 ± 18.0%
Power ratio with respect to morphine alone [2]: 1.95

O=C(NC(CCC(=O)N1CCCCC1)C(=O)O)c1ccc(Br)cc1 [Compound D-7]
ED50 (concentration antagonising 50% of contracting effect of CCK-8) [5]: > 200 µg/mL
percentage variation of latency of pain sensation [2, 12]: 31.8 ± 19.0%
percentage variation of latency of pain sensation [2, 13]: 48.0 ± 16.0%
percentage variation of latency of pain sensation [2, 14]: 70.5 ± 15.0%
percentage variation of latency of pain sensation [2, 15]: 73.7 ± 13.0%
percentage variation of latency of pain sensation [2, 16]: 88.6%
percentage variation of latency of pain sensation [2, 17]: 32.4 ± 19.0%
M (10-90) ± SE, mean percentage variation of latency [2, 18]: 57.5 ± 23.5%
Power ratio with respect to morphine alone [2]: 1.93

CCCN(CCC)C(=O)C(CCC(=O)O)NC(=O)c1ccc(Br)cc1 (stereo not drawn) [Compound C-15]
ED50 (concentration antagonising 50% of contracting effect of CCK-8) [5]: > 200 µg/mL
percentage variation of latency of pain sensation [2, 12]: 59.8 ± 14.0%
percentage variation of latency of pain sensation [2, 13]: 84.2 ± 9.6%
percentage variation of latency of pain sensation [2, 14]: 78.3 ± 13.5%
percentage variation of latency of pain sensation [2, 15]: 88.7 ± 8.5%
percentage variation of latency of pain sensation [2, 16]: 82.5 ± 12.7%
percentage variation of latency of pain sensation [2, 17]: 54.5 ± 14.7%
M (10-90) ± SE, mean percentage variation of latency [2, 18]: 74.7%
Power ratio with respect to morphine alone [2]: 2.51
